Source: article PMC8226474, “Design, Syntheses, and Bioevaluations of Some Novel N^2-Acryloylbenzohydrazides as Chemostimulants and Cytotoxic Agents” (Medicines, 2021)
Where “and” joins values, the source holds several entries; their conditions need not be identical. Equal values may be shown once. Read-outs that look alike come from different tables or passages of the source.

Legend:
MCF-7 cells = assay: Cytotoxicity assay, MCF-7 breast cancer cells; type: cell-based, human; conditions: for inhibition at 10 µM / inhibition at 100 µM / IC50: Homo sapiens, MCF7, 48 h; for inhibition at 10 µM / inhibition at 100 µM: read-out: percentage inhibition of MCF-7 cells; for IC50 / SI (selectivity index): Table 2; for IC50: read-out: Neoplastic Cells IC50, MCF-7; for SI (selectivity index): IC50 CRL 1790 / IC50 MCF-7
From the text: (§1) Evaluation of the cytotoxic properties of the compounds presented in Table 1, Table 2, Table 3 and Table 4 was undertaken using the procedure outlined in [7]. In brief, the HCT 116 cells were obtained from the ATCC and cultured in McCoy’s 5A medium. The CRL 1790 cells were obtained from the ATCC and cultured in Minimum Essential Medium. The MCF-7 and MDA-MBA-231 cells were obtained from the Saskatchewan Cancer Agency and cultured in DMEM. In each assay the culture medium was supplemented with 10% fetal bovine serum and 1% penicillin–streptomycin antibiotics. The time of the bioassays was 48 h, unless indicated otherwise. All determinations were carried out in triplicate on three different occasions.

HCT 116 cells [1] = assay: Cytotoxicity assay, HCT 116 colon cancer cells; type: cell-based, human; conditions: for inhibition at 10 µM / inhibition at 100 µM / IC50: Homo sapiens, HCT-116, 48 h; for inhibition at 10 µM / inhibition at 100 µM: read-out: percentage inhibition of HCT 116 cells; for SI (selectivity index): IC50 CRL 1790 / IC50 HCT 116
From the text: as §1

MDA-MB-231 cells = assay: Cytotoxicity assay, MDA-MB-231 breast cancer cells; type: cell-based, human; conditions: for inhibition at 10 µM / inhibition at 100 µM / IC50: Homo sapiens, MDA-MB-231, 48 h; for inhibition at 10 µM / inhibition at 100 µM: read-out: percentage inhibition of MDA-MB-231 cells; for IC50 / SI (selectivity index): Table 2; for IC50: read-out: Neoplastic Cells IC50, MDA-MB-231; for SI (selectivity index): IC50 CRL 1790 / IC50 MDA-MB-231
From the text: as §1

CRL 1790 cells = assay: Cytotoxicity assay, non-malignant CRL 1790 colon cells; type: cell-based
From the text: as §1

HCT 116 cells [2] = assay: Chemosensitization of HCT 116 cells: 1m for 24 h, then 2a or 5-FU for a further 24 h; type: cell-based, human; conditions: for Reduction in Live Cells % 2a (24 h): DMSO figure minus compound figure
From the text: as §1
The next phase of the investigation was to determine whether a representative compound in series 1 chemosensitizes HCT 116 cells to a 3,5-bis(benzylidene)-4-piperidone 2a. […] The colon cancer cells were incubated for 24 h with 1m, and then 2a was added and the incubation was continued for a further 24 h. Different concentrations of both 1m and 2a were employed, and the results are presented as entries 1–12 in Table 3. In addition, the effects of each of 1m, 2a, and 5-FU on HCT 116 cells (which are necessary for the evaluation of whether chemosensitivity occurs) were recorded, and are presented as entries 13–20 in Table 3.
The concentration of 1m in combination 4 is 5 µM, which after 48 h causes a percentage reduction of live cells to 86% (DMSO figure after 48 h, line 20) minus 75% (48 h, line 13), or 11%.
The concentration of 2a in combination 4 is 0.2 µM. This combination leads to a reduction of the percentage of live cells to 91% (DMSO figure after 24 h, line 20) minus 69%, or 22%.
The percentage reduction in live cells caused by a combination of 1m (5 µM) and 2a (0.2 µM), in the absence of chemosensitization, is 11% plus 22%, or 33%.
However, the percentage reduction in cells as indicated on line 4 is 86% (DMSO figure after 48 h) minus 12% (line 4, 48 h figure), or 74%.

[3] = Homo sapiens, 48 h, Table 2, read-out: Non-Malignant CRL 1790 Cells IC50
[4] = Homo sapiens, 48 h, Table 4, read-out: IC50 CRL 1790
[5] = Table 4, read-out: IC50 HCT 116
[6] = Table 2, read-out: Neoplastic Cells IC50, HCT 116

SMILES | inhibition at 10 µM (MCF-7 cells) [%] | inhibition at 100 µM (MCF-7 cells) [%] | inhibition at 10 µM (HCT 116 cells [1]) [%] | inhibition at 100 µM (HCT 116 cells [1]) [%] | inhibition at 10 µM (MDA-MB-231 cells) [%] | inhibition at 100 µM (MDA-MB-231 cells) [%] | melting point [°C] | IC50 (CRL 1790 cells; [4]) [µM] | IC50 (HCT 116 cells [1]; [5]) [µM] | SI (selectivity index) (HCT 116 cells [1]; Table 4) | other results
C=CC(=O)NNC(=O)c1ccc(F)cc1 [1b, N^2-Acryloyl-4-fluorobenzohydrazide] | -40.1 ± 3.34 | 33.2 ± 3.13 | -2.35 ± 2.24 | 60.7 ± 3.22 | -7.37 ± 1.52 | 39.9 ± 2.51 |  |  |  |  | 
C=CC(=O)NNC(=O)c1ccc(Br)cc1 [1c, N^2-Acryloyl-4-bromobenzohydrazide] | -4.68 ± 3.17 | 46.6 ± 3.35 | -3.28 ± 1.5 | 87.9 ± 0.91 | -16.5 ± 1.45 | 88.7 ± 1.26 | 256 to 259 |  |  |  | 
C=CC(=O)NNC(=O)c1ccccc1Cl [1e, N^2-Acryloyl-2-chlorobenzohydrazide] | 8.66 ± 1.81 | 75.8 ± 2.76 | 4.3 ± 1.38 | 75.7 ± 1.65 | -7.15 ± 2.29 | 91.9 ± 4.53 | 165 to 167 |  |  |  | 
C=CC(=O)NNC(=O)c1cccc(Cl)c1 [1f, N^2-Acryloyl-3-chlorobenzohydrazide] | -15.5 ± 3.38 | 85.9 ± 2.7 | 13.5 ± 1.79 | 95.7 ± 1.71 | 15.6 ± 3.14 | 98.7 ± 0.92 | 155 to 158 |  |  |  | 
C=CC(=O)NNC(=O)c1ccc(Cl)c(Cl)c1 [1g, N^2-Acryloyl-3,4-dichlorobenzohydrazide] | -50.5 ± 3.27 | 97.4 ± 2.6 | 6.72 ± 1.97 | > 100 | -19.4 ± 3.01 | 139.8 ± 1.03 | 172 to 175 |  |  |  | 
C=CC(=O)NNC(=O)c1cccc(C)c1 [1i, N^2-Acryloyl-3-methylbenzohydrazide] | -82.8 ± 3.48 | 44.2 ± 2.96 | 15.4 ± 2.13 | 93.9 ± 3.35 | -5.91 ± 3.86 | 53.3 ± 2.89 | 138 to 140 |  |  |  | 
C=CC(=O)NNC(=O)c1ccccc1C [1j, N^2-Acryloyl-2-methylbenzohydrazide] | 53.3 ± 3.07 | > 100 | 10.4 ± 1.61 | 62.1 ± 2.48 | -2.64 ± 2.37 | 46.8 ± 3.63 | 151 to 153 |  |  |  | IC50 (CRL 1790 cells; [3]): > 100 µM; IC50 (MCF-7 cells): 9.14 ± 1.31 µM; SI (selectivity index) (MCF-7 cells): >10.9
C=CC(=O)NNC(=O)c1ccc(C)cc1 [1k, N^2-Acryloyl-4-methylbenzohydrazide] | 55.3 ± 3.05 | > 100 | 11.5 ± 2.99 | > 100 | -8.78 ± 1.52 | 74.7 ± 2.96 | 157 to 160 |  |  |  | IC50 (CRL 1790 cells; [3]): > 100 µM; IC50 (MCF-7 cells): 5.54 ± 0.51 µM; SI (selectivity index) (MCF-7 cells): >18.1
O=C1C(=Cc2ccccc2)CNCC1=Cc1ccccc1 [2a, 3,5-bis(benzylidene)-4-piperidone] |  |  |  |  |  |  |  | 13.5 ± 1.99 | 0.37 ± 0.06 | 36.4 | Reduction in Live Cells % 2a (24 h) (HCT 116 cells [2]; 2a 0.1 µM alone, 24 h): 8%; Reduction in Live Cells % 2a (24 h) (HCT 116 cells [2]; 2a 0.2 µM alone, 24 h): 22%; Reduction in Live Cells % 2a (24 h) (HCT 116 cells [2]; 2a 0.4 µM alone, 24 h): 43%; Live Cells % (HCT 116 cells [2]; entry 16: 2a 0.1 µM alone, 24 h): 83 ± 2.28%; Live Cells % (HCT 116 cells [2]; entry 16: 2a 0.1 µM alone, 48 h): 78 ± 2.12%; Live Cells % (HCT 116 cells [2]; entry 17: 2a 0.2 µM alone, 24 h): 69% and 69 ± 1.38%; Live Cells % (HCT 116 cells [2]; entry 17: 2a 0.2 µM alone, 48 h): 52 ± 1.15%; Live Cells % (HCT 116 cells [2]; entry 18: 2a 0.4 µM alone, 24 h): 48 ± 1.20%; Live Cells % (HCT 116 cells [2]; entry 18: 2a 0.4 µM alone, 48 h): 32 ± 1.50%
O=c1[nH]cc(F)c(=O)[nH]1 [5-FU, 5-fluorouracil, reference compound] | 91.2 ± 3.03 | 99.3 ± 2.87 | 84.7 ± 2.53 | 94.1 ± 0.96 | 17.4 ± 2.97 | > 100 |  | 10.8 ± 1.64 | 4.11 ± 0.22 | 2.64 | Reduction in Live Cells % 2a (24 h) (HCT 116 cells [2]; 5-FU 3 µM alone, 24 h): 13%; Live Cells % (HCT 116 cells [2]; entry 19: 5-FU 3 µM alone, 24 h): 78 ± 2.44%; Live Cells % (HCT 116 cells [2]; entry 19: 5-FU 3 µM alone, 48 h): 55 ± 1.37%; IC50 (CRL 1790 cells; [3]): 10.8 ± 1.64 µM; IC50 (MCF-7 cells): 2 ± 0.25 µM; SI (selectivity index) (MCF-7 cells): 5.42; IC50 (HCT 116 cells [1]; [6]): 3.77 ± 0.48 µM; SI (selectivity index) (HCT 116 cells [1]; Table 2): 2.92; IC50 (MDA-MB-231 cells): 15.9 ± 1.65 µM; SI (selectivity index) (MDA-MB-231 cells): 0.68
CC(=O)NNC(=O)c1ccccc1 [6b, N^2-Acetylbenzohydrazide] | -93.8 ± 4.15 | -58.7 ± 3.24 | -4.89 ± 2.52 | 13.6 ± 3.03 | -22.6 ± 2.65 | -15.3 ± 3.46 | 171 to 172 |  |  |  | 
O=C(CCNNC(=O)c1ccccc1)NNC(=O)c1ccccc1 [6c, N^2-[3-(Benzoylaminoamino)-1-oxopropyl]-N^1-benzoylhydrazine] | 16.1 ± 3.55 | 97.9 ± 2.68 | 18.6 ± 3.98 | 96.9 ± 1.86 | -16 ± 2.91 | 95.6 ± 4.22 | 193 to 195 |  |  |  | 
COc1ccc(C(=O)NNC(=O)CCN2CC(=Cc3ccccc3)C(=O)C(=Cc3ccccc3)C2)cc1OC [7b, 3,5-Bis(benzylidene)-1-[3-(3,4-dimethoxylphenylcarbonylaminoamino)-3-oxo-1-propyl]-4-piperidone] |  |  |  |  |  |  | 151 to 154 | 9.63 ± 1.62 | 3.15 ± 0.33 | 3.06 | times more potent than 1m (HCT 116 cells [1]; ratio of IC50 values towards HCT 116 cells): 4.86 times
COc1ccc(C(=O)NNC(=O)CCN2CC(=Cc3ccc(Cl)cc3)C(=O)C(=Cc3ccc(Cl)cc3)C2)cc1OC [7c, 3,5-Bis(4-chlorobenzylidene)-1-[3-(3,4-dimethoxyphenylcarbonylaminoamino)-3-oxo-1-propyl]-4-piperidone] |  |  |  |  |  |  | 200 to 202 | 12.2 ± 1.22 | 3.4 ± 0.01 | 3.60 | 
COc1ccc(C(=O)NNC(=O)CCN2CC(=Cc3ccc(F)cc3)C(=O)C(=Cc3ccc(F)cc3)C2)cc1OC [7d, 3,5-Bis(4-fluorobenzylidene)-1-[3-(3,4-dimethoxyphenylcarbonylaminoamino)-3-oxo-1-propyl]-4-piperidone] |  |  |  |  |  |  | 198 to 200 | 11.4 ± 2.22 | 3.82 ± 0.11 | 2.99 | 
COc1ccc(C=C2CN(CCC(=O)NNC(=O)c3ccc(OC)c(OC)c3)CC(=Cc3ccc(OC)cc3)C2=O)cc1 [7f, 3,5-Bis(4-methoxybenzylidene)-1-[3-(3,4-dimethoxyphenylcarbonylaminoamino)-3-oxo-1-propyl]-4-piperidone] |  |  |  |  |  |  | 175 to 178 | 11.1 ± 0.52 | 2.87 ± 0.23 | 3.86 | 
N[C@@H](Cc1ccc(N(CCCl)CCCl)cc1)C(=O)O [Melphalan, reference compound] | > 100 | > 100 | 33.9 ± 1.81 | 98.7 ± 1.12 | 28.6 ± 2.48 | > 100 |  |  | 33.2 ± 1.7 | >3.02 | IC50 (CRL 1790 cells; Homo sapiens; Table 2; 48 h; read-out: Non-Malignant CRL 1790 Cells IC50): > 100 µM; IC50 (CRL 1790 cells; Homo sapiens; Table 4; 48 h; read-out: IC50 CRL 1790): > 100 µM; IC50 (MCF-7 cells): 12 ± 1.43 µM; SI (selectivity index) (MCF-7 cells): >8.32; IC50 (HCT 116 cells [1]; [6]): 30.7 ± 2.73 µM; SI (selectivity index) (HCT 116 cells [1]; Table 2): >3.25; IC50 (MDA-MB-231 cells): 52.9 ± 2.32 µM; SI (selectivity index) (MDA-MB-231 cells): >1.90
